Reference: US8686155B2, “Aurora kinase modulators and method of use” (Amgen Inc., priority 2006, dated 2014)
Where two headings read alike, the source gives them in different places.

Assays:
[1] = biological target: T1, AuroraB (Homo sapiens, UniProt Q96GD4); experiment: AuroraB Homogeneous Time Resolved Fluorescent (HTRF) kinase assay; assay type: biochemical
T1 construct: 20 μL of AuroraB FL His; His
Method: AuroraB-Homogeneous Time Resolved Fluorescent (HTRF) Kinase Assay:
The AuroraB HTRF assay begins with AuroraB in the presence of ATP phosphorylating the biotinylated peptide Histone H3. The reaction incubates for about 90 min. the reaction is quentched by addition of detection reagents, which stop the reaction by diluting out the enzyme and chelating the metals due to the presence of EDTA. After addition, the assay is incubated for about 60 min to allow detection reagents to equilibrate.
The AuroraB HTRF assay comprises 1 μL of compound in 100% DMSO, 20 μL of ATP and biotinylated Histone H3, and 20 μL of AuroraB FL His for a final volume of 41 μL. The final concentration of Histone H3 is 0.1 μM. The final concentration of ATP is 23 μM (Km(app)=23 μM+/−2.6) and the final concentration of AuroraB is 400 pM. Buffer conditions are as follows: 50 mM HEPES pH 7.5, 5 mM NaCl, 0.5 mM MgCl, 0.5 mM MnCl, 2 mM DTT, 0.05% BSA.
(§1) The assay is quenched and stopped with 160 μl, of detection reagent. Detection reagents are as follows: Buffer made of 50 mM Tris, pH 7.5, 100 mM NaCl, 3 mM EDTA, 0.05% BSA, 0.1% Tween20. Added to this buffer prior to reading is Steptavidin allophycocyanin (SA-APC) at a final conc in the assay of 0.001 mg/mL, and europilated anti-phosphoHistoneH3 Ab (Eu-anti-His H3) at a final conc of 0.064 nM.
The assay plate is read in either a Discovery or a RubyStar. The eu-anti-HisH3 is excited at 320 nm and emits at 615 nm to excite the SA-APC which in turn emits at 655 nm. The ratio of SA-APC at 655 nm (excited due to close proximity to the Eu-anti-H HisH3 because of phosphorylation of the peptide) to free Eu-anti-HisH3 at 615 nm will give substrate phosphorylation.

[2] = biological target: T2, AuroraA-TPX2 (Homo sapiens, UniProt O14965); experiment: AuroraA-TPX2 Homogeneous Time Resolved Fluorescent (HTRF) kinase assay; assay type: biochemical
T2 construct: 20 μL of AuroraA-TPX2 KD GST; GST
T2 sequence (O14965 133-383 limits assumed): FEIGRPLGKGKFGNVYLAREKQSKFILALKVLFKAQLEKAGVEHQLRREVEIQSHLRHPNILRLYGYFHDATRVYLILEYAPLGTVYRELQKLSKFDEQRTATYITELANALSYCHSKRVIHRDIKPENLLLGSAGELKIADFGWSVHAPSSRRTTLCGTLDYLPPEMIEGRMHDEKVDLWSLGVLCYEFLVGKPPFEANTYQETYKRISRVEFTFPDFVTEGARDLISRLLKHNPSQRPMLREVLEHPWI
T2 sequence (Q9ULW0 1-43 partner limits assumed): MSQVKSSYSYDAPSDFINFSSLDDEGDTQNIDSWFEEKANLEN
Method: AuroraA-TPX2-Homogeneous Time Resolved Fluorescent (HTRF) Kinase Assay
The Aurora-A HTRF assay begins with Aurora-A in the presence of ATP phosphorylating the biotinylated peptide PLK. The reaction incubates for about 120 min. Detection reagents are added to quench the reaction. These agents stop the reaction by diluting out the enzyme and chelating the metals due to the presence of EDTA. After addition, the assay is incubated overnight to allow the detection reagents to equilibrate.
The final concentration of PLK is about 1 μM. […] Buffer conditions are as follows: 60 mM HEPES pH 7.5, 25 mM NaCl, 10 mM MgCl, 2 mM DTT, 0.05% BSA.
as §1, with “μL” for “μl,”, “0.0005” for “0.001”, “anti-phosphoPLK” for “anti-phosphoHistoneH3”, “(Eu-anti-PLK)” for “(Eu-anti-His H3)”, “0.02” for “0.064”
The assay plate is read in either a Discovery or a RubyStar. The eu-anti-PLK is excited at 320 nm and emits at 615 nm to excite the SA-APC which in turn emits at 655 nm.

[3] = tested on: phosphorylation of Histone H3 in HeLa cells; experiment: HeLa cell 1-hour phospho-histone assay; assay type: cell-based; conditions: Homo sapiens, % of cells pHH3 positive, unit inferred, read-out: inhibitory activity (EC50) in the phospho-histone H3 assay
Method: HeLa Cell 1-Hour Phospho-Histone Assay
The purpose of this assay is to test the inhibitory effect of Aurora compounds with respect to phosphorylation of Histone H3 in the cellular context. HeLa cells (9×10^4/well) are plated in black 96-well flat-bottom tissue culture plates and incubated for 40 hours prior to compound addition. Compounds are serially diluted in DMSO, followed by dilution into MEM containing 10 mM HEPES; 10 ul/well of diluted compounds are added to cells (0.5% DMSO final). Cells are incubated for 1 hour at 37° C. in 5% CO2. Cells are then fixed with 3.7% formaldehyde for 10 minutes, washed with wash buffer (1% goat serum and 0.1% Tween 20 in PBS), then permeabilized with 0.5% Triton X in PBS for 15 minutes. After washing with wash buffer, cells are incubated with primary antibody (Upstate #06-507 anti-phospho-histone (Ser 10) antibody (pHH3) for 1 hour at 10 ug/ml. After 2 washes with wash buffer, cells are incubated with secondary antibody (Molecular Probes #A11034 goat anti-rabbit Alexa-488 for 1 hour at 1 ug/ml+Hoechst 33342 nuclear dye at 1 ug/ml (Molecular Probes). Cells are washed 2 times with wash buffer, and buffer replaced with PBS. Plates are scanned on the Cellomics Array Scan (6 fields, ˜2000 cells/well) and % of cells that are pHH3 positive were calculated using the Cellomics algorithm.

[4] = numeric values, unit inferred, read-out: AurB_IC50_IP (Avg)
[5] = numeric values, unit inferred, read-out: AurA/TPX2_IC50_IP (Avg)
[6] = ATP 23 μM, biotinylated peptide Histone H3, read-out: average activity in the Aurora kinase B HTRF assay
[7] = ATP about 1 μM, biotinylated peptide PLK, read-out: average activity in the Aurora kinase A HTRF assay
[8] = class symbols, read-out: AurB_IC50_IP (Avg)
[9] = class symbols, read-out: AurA/TPX2_IC50_IP (Avg)

T1 sequence (Q96GD4 whole entry): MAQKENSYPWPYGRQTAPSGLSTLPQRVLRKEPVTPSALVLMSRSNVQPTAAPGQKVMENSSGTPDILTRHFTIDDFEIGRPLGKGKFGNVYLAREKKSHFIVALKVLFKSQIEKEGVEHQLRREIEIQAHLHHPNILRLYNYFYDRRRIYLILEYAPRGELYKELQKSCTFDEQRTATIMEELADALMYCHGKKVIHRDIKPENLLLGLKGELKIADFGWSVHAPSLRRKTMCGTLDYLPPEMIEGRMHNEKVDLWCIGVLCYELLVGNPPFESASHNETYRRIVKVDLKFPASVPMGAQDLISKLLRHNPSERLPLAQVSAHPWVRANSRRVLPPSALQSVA

With `CCCc1cc(-c2ccccc2)nnc1Nc1ccc(Oc2ncccc2-c2ccnc(N)n2)cc1` [compound 445] the IC50 [1, 4] was 0.0031 µM and the IC50 [2, 5] was 0.0235 µM.

Work on `Cc1csc(-c2cc(C)c(Nc3ccc(Oc4ncccc4-c4ccnc(N)c4)cc3)nn2)n1` [compound 434] yielded an IC50 [1, 4] of 0.0095 µM and an IC50 [2, 5] of 0.0986 µM.

In the case of `CNc1cc(-c2cnccc2Oc2ccc(Nc3nnc(-c4ccccc4)c4ccccc34)cc2)ccn1` [Example 242, N-(4-(3-(2-(methylamino)pyridin-4-yl)pyridin-4-yloxy)phenyl)-4-phenylphthalazin-1-amine], the IC50 [1, 6] is reported as at most 0.1 µM and the IC50 [2, 7] is reported as at most 0.1 µM.

`CNc1nccc(-c2cccnc2Oc2ccc(Nc3nnc(-c4ccccc4)c4c3C3CCC4CC3)cc2)n1` [Example 107, N-(4-((3-(2-(methylamino)-4-pyrimidinyl)-2-pyridinyl)oxy)phenyl)-6-phenyl-4,5-diazatricyclo [6.2.2.0~2,7~]dodeca-2,4,6-trien-3-amine] showed an EC50 [3] of under 1 µM.

Work on `Nc1nccc(-c2cccnc2Oc2ccc(Nc3nnc(-c4ccccc4)c4ccccc34)cn2)n1` [compound 415] yielded an IC50 [1, 8] of at most 0.1 µM and an IC50 [2, 9] of at most 0.1 µM.

`Cc1csc(-c2nnc(Nc3ccc(Oc4ncccc4-c4ccnc(N)c4)cc3)c3ccccc23)c1` [compound 416] showed an IC50 [1, 4] of 0.0145 µM and an IC50 [2, 5] of 0.0541 µM.

In the case of `Oc1cccc(-c2ccncc2)c1Oc1ccc(Nc2nnc(-c3ccccc3)c3ccccc23)cc1` [compound 447], the IC50 [1, 8] is reported as 0.5 to 2.5 µM.

`CCc1cc(-c2ccccc2)nnc1Nc1ccc(Oc2ncccc2-c2ccnc(N)n2)nc1` [compound 439] showed an IC50 [1, 8] of at most 0.1 µM and an IC50 [2, 9] of at most 0.1 µM.

With `COCc1cccc(-c2nnc(Nc3ccc(Oc4ncccc4-c4ccnc(N)n4)cc3)c3ccccc23)n1` [compound 298] the IC50 [1, 8] was at most 0.1 µM and the IC50 [2, 9] was at most 0.1 µM.

`COc1cccc(-c2nnc(Nc3ccc(Oc4ncccc4-c4ccnc(N)n4)cc3)c3ccccc23)c1` [compound 438] showed an IC50 [1, 8] of at most 0.1 µM and an IC50 [2, 9] of at most 0.1 µM.

In the case of `O=C(O)CCCNc1nccc(-c2cccnc2Oc2ccc(Nc3nnc(-c4ccccc4)c4ccccc34)cc2)n1` [compound 427], the IC50 [1, 8] is reported as at most 0.1 µM and the IC50 [2, 9] is reported as at most 0.1 µM.

With `CCc1cc(-c2ccccc2)nnc1Nc1ccc(Oc2ncccc2-c2ccnc(N)c2)cc1` [compound 420] the IC50 [1, 4] was 0.0071 µM and the IC50 [2, 5] was 0.0568 µM.

For `CCc1cc(-c2ccccc2)nnc1Nc1ccc(Oc2ncccc2-c2ccnc(N)c2)nc1` [compound 444], the IC50 [1, 8] was at most 0.1 µM and the IC50 [2, 9] was 0.1 to 0.5 µM.

`Nc1cc(-c2cccnc2Oc2ccc(Nc3nnc(-c4ccccc4)c4ccccc34)cn2)ccn1` [compound 431] showed an IC50 [1, 8] of at most 0.1 µM and an IC50 [2, 9] of at most 0.1 µM.

With `Cc1csc(-c2cc(C)c(Nc3ccc(Oc4ncccc4-c4ccncc4)cc3)nn2)c1` [compound 428] the IC50 [1, 8] was at most 0.1 µM and the IC50 [2, 9] was at most 0.1 µM.

Compound `COc1cccc(-c2nnc(Nc3ccc(Oc4ncccc4-c4ccnc(N)c4)cc3)c3ccccc23)c1` [compound 441] has an IC50 [1, 8] of 0.1 to 0.5 µM and an IC50 [2, 9] of 0.1 to 0.5 µM.

In the case of `CNc1nccc(-c2cccnc2Oc2ccc(Oc3nnc(-c4ccccc4)c4ccccc34)cc2)n1` [Example 244, N-methyl-4-(2-(4-(4-phenylphthalazin-1-yloxy)phenoxy)pyridin-3-yl)pyrimidin-2-amine], the IC50 [1, 6] is reported as at most 0.1 µM and the IC50 [2, 7] is reported as at most 0.1 µM.

`Cc1cccc(-c2nnc(Nc3ccc(Oc4ncccc4-c4ccnc(N)n4)cc3)c3ccccc23)n1` [compound 271] showed an IC50 ([1]; numeric values, read-out: AurB_IC50_IP (Avg)) of 0.001 µM and an IC50 ([2]; numeric values, read-out: AurA/TPX2_IC50_IP (Avg)) of 0.0243 µM.

With `COCc1cc(-c2ccccc2)nnc1Nc1ccc(Oc2ncccc2-c2ccnc(N)n2)cc1` [compound 446] the IC50 [1, 8] was at most 0.1 µM and the IC50 [2, 9] was at most 0.1 µM.

`COc1ccccc1-c1nnc(Nc2ccc(Oc3ncccc3-c3ccnc(N)n3)nc2)c2ccccc12` [compound 440] showed an IC50 [1, 8] of at most 0.1 µM and an IC50 [2, 9] of at most 0.1 µM.

Work on `c1ccc(-c2nnc(Nc3ccc(Oc4ncncc4-c4ccncc4)cc3)c3ccccc23)cc1` [Example 243, 4-phenyl-N-(4-(5-(pyridin-4-yl)pyrimidin-4-yloxy)phenyl)phthalazin-1-amine] yielded an IC50 [1, 6] of at most 0.1 µM and an IC50 [2, 7] of at most 0.1 µM.

`Cc1cc(-c2ccccc2)nnc1Nc1ccc(Oc2ncccc2-c2ccnc(NCCCO)n2)cc1` [compound 429] was tested, and the IC50 [1, 8] was at most 0.1 µM and the IC50 [2, 9] was at most 0.1 µM.

For `CC(C)c1nnc(Nc2ccc(Oc3ncccc3-c3ccnc(N)n3)nc2)c2ccccc12` [compound 269], the IC50 [2, 9] was 0.1 to 0.5 µM.

Compound `O=c1cc(-c2cccnc2Oc2ccc(Nc3nnc(-c4ccccc4)c4ccccc34)cc2)cc[nH]1` [compound 432] has an IC50 [1, 8] of 0.5 to 2.5 µM.

`COc1ccccc1-c1nnc(Nc2ccc(Oc3ncccc3-c3ccnc(N)c3)cc2)c2ccccc12` [compound 442] showed an IC50 [1, 4] of 0.033 µM and an IC50 [2, 5] of 0.375 µM.

Work on `CCc1cc(-c2ccccc2)nnc1Nc1ccc(Oc2ncccc2-c2ccnc(N)n2)cc1` [compound 435] yielded an IC50 [1, 8] of at most 0.1 µM and an IC50 [2, 9] of at most 0.1 µM.

`COc1cccc(-c2ccncc2)c1Oc1ccc(Nc2nnc(-c3ccccc3)c3ccccc23)cc1` [compound 448] gave an IC50 [1, 4] of 0.0096 µM and an IC50 [2, 5] of 0.11 µM.

With `Cc1cc(-c2ccccc2)nnc1Nc1ccc(Oc2ncccc2-c2ccnc(NCCCC(=O)O)n2)cc1` [compound 430] the IC50 [1, 8] was at most 0.1 µM and the IC50 [2, 9] was at most 0.1 µM.

Compound `Cc1csc(-c2cc(C)c(Nc3ccc(Oc4ncccc4-c4ccnc(N)c4)cc3)nn2)c1` [compound 419] has an IC50 [1, 8] of at most 0.1 µM and an IC50 [2, 9] of at most 0.1 µM.

For `COc1cccc(-c2cc(C)c(Nc3ccc(Oc4ncccc4-c4ccnc(N)n4)cc3)nn2)c1` [compound 443], the IC50 [1, 8] was at most 0.1 µM and the IC50 [2, 9] was at most 0.1 µM.

In the case of `Cc1cc(-c2ccccc2)nnc1Nc1ccc(Oc2ncccc2-c2ccnc(N)c2)cc1` [compound 418], the IC50 [1, 8] is reported as at most 0.1 µM and the IC50 [2, 9] is reported as at most 0.1 µM.

`N#Cc1cccc(-c2ccncc2)c1Oc1ccc(Nc2nnc(-c3ccccc3)c3ccccc23)cc1` [compound 436] gave an IC50 [1, 8] of at most 0.1 µM and an IC50 [2, 9] of 0.1 to 0.5 µM.

`COc1ccccc1-c1nnc(Nc2ccc(Oc3ncccc3-c3ccnc(N)n3)cc2)c2ccccc12` [compound 437] showed an IC50 [1, 8] of at most 0.1 µM and an IC50 [2, 9] of at most 0.1 µM.
